Results published in patent US5002969A, “Pharmaceutical compositions containing titanocene complexes and use of these complexes as cytostatic agents” (priority 1985, dated 1991).

How the values were obtained:
B16 Melanoma = test: Activity against B16 Melanoma; assay type: in vivo, female B6 D2 F1 mice; settings: day 10
Description: (§1) The B16 melanoma and colon 38 carcinoma used were obtained from the NCI Liasion Office, Institut Jules Bordet, Brussels, Belgium and, for propagation, were kept as solid, subcutaneously growing tumor lines on male C57BL/6J mice. For testing, the tumors were transplanted to female B6 D2 F1 mice. All animals were kept under standard conditions (22°-23° C., tap water and altromin food ad libitum, 12-h light-dark rhythm).
(§2) For tumor transplantation on day 0 of the testing experiments, solid tumors were removed from donor mice, minced with scissors and reduced to small particles. After suspension in twofold volumes of Hank's balanced salt solution, volumes of 0.3 ml were inoculated subcutaneously into the axillary region, resulting in the growth of solitary solid tumors.
(§3) The test compounds were administered either as a single injection on day 1 or as three injections on days 1, 3 and 5, or as five injections on days 1, 3, 5, 7 and 9. The different doses applied and the animal distribution are recorded in table 4. The substances, dissolved or suspended in a DMSO-saline mixture (1/9=v/v), were always injected intraperitoneally. The concentrations were selected in such a manner that each mouse received a total volume of 0.4 to 0.5 ml. Control animals only obtained one, three or five injections of the DMSO-saline mixture (0.5 ml/animal) without drug addition.
(§4) The number of deaths was recorded daily. Deaths occuring within 7 days (single injection), 11 days (three injections) or 15 days (five injections) after tumor transplantation were defined as deaths due to substance toxicity.
(§5) In the case of B16 melonoma, the tumors were removed and weighed on day 10 for the single and three injections or on day 15 for the five injections. Colon 38 carcinomas were always evaluated on day 15 of the experiment.

Colon 38 Carcinoma = test: Activity against Colon 38 Carcinoma; assay type: in vivo, female B6 D2 F1 mice; settings: day 15
Description: as §1, §2, §3, §4, §5

ascitic Sarcoma 180 = test: Activity against ascitic Sarcoma 180; assay type: in vivo, female NMRI mice; settings: for MST (mean survival time): mean (range); for Survivors/Animals Treated: day 80
Description: Each animal obtained about 10^7 tumor cells.
Every day occuring deaths were noted.

solid Sarcoma 180 = test: Activity against solid Sarcoma 180; settings: for T/C / Tumor Weight: day 9; for Tumor Weight: mean ± SD
Description: The sarcoma 180 used in the present study was obtained from the Deutsche Krebsforschungszentrum (Heidelberg, Germany). It was propagated as an intraperitoneally growing tumor line on female NMRI mice which were kept under standard conditions (altromin food and tap water ad libitum, 12-h dark-light rhythm).
Antitumor testing was performed against sarcoma 180 in fluid ascitic as well as in solid, subcutaneously growing form. For testing against ascitic or solid sarcoma 180, the ascitic tumor of donor mice was harvested, diluted 1:3 (v:v) with saline and injected either into the peritoneal cavity or, subcutaneously, into the axillary region of female NMRI mice. Each animal obtained about 10^7 tumor cells. The day of tumor transplantation was defined as day 0 of the experiment.
Before administration of the test compounds, samples corresponding to the applied doses were dissolved in DMSO, filled up with ninefold volumes of saline and applied to mice in volumes of 0.02 ml per g of body weight. The different doses were either given as a single injection on day 1 or as triple injections on days 1, 3 and 5. […] The untreated, tumor-bearing control animals only received injections of the DMSO/saline mixture (0.02 ml/g). Every day occuring deaths were noted. Deaths within 8 days after tumor transplantation were defined as toxic deaths due to substance toxicity. In the case of ascitic sarcoma 180, the parameters evaluated were the values of mean survival time (MST) and of increase in life span (ILS); the latter was calculated by relating the mean survival time of a treated group to that of the corresponding control group expressed as a percentage and by subtracting 100%. The key date for the evaluation of the experiment and for determining the number of surviving (cured) animals was day 80. In the case of solid sarcoma 180, the tumors were removed on day 9 after transplantation and weighted to an accuracy of ±1 mg. From tumor weights of treated and control animals, the T/C ratios were calculated as follows: [formula]

Ehrlich ascites tumor = test: Activity against Ehrlich Ascites Tumor; assay type: in vivo, Female CF1 mice; settings: single i.p. dose, 24 h after tumor inoculation
Description: Female CF1 mice are each given about 6×10^6 Ehrlich ascites tumor cells by means of intraperitoneal injection and, 24 hours later, a single intraperitoneal dose of substance dose range of 20 to 500 mg/kg) in physiological saline solution (0.4 ml). In each case 5 to 10 animals are tested per dose. If appropriate, the preparation can be buffered to a pH of 4 to 7, for example with sodium bicarbonate or tris-(hydroxymethyl)-aminomethane, in order to avoid local irritation at the injection site. A group of untreated control animals which were injected intraperitoneally with 0.4 ml of physiological saline solution without administration of the substance is also run for each test series.
The tumor development in the individual dose ranges is evaluated by means of the weight course and survival time. The dose-dependent number of tumor deaths, toxicity deaths and surviving, and the associated percentage increase in the average survival time are determined for each substance.

Mammary Carcinoma = test: Activity against heterotransplanted human mammary carcinoma; assay type: in vivo, human tumor xenograft tumor xenograft tumor xenograft; settings: day 23
Description: (§6) The same testing procedure as in the tests with B16 melanoma and colon 38 carcinoma was employed. The test compounds were applied in equivalent and equitoxic doses, subdivided into five injections. The first injection was administered on day 8 (mammary carcinoma), day 10 (adenocarcinoma of rectum and lung) and day 26 (small cell lung carcinoma) of the tumor transplantation. The T/C values were determined 3 days after the last substance injection, i.e., on day 23 (mammary carcinoma), day 25 (adenocarcinoma of rectum and lung) and day 41 (small cell lung carcinoma).

Lung Adenocarcinoma = test: Activity against heterotransplanted human lung adenocarcinoma; assay type: in vivo; settings: day 25
Description: as §6

Rectum Adenocarcinoma = test: Activity against heterotransplanted human rectum adenocarcinoma; assay type: in vivo; settings: day 25
Description: as §6

[1] = system: Lung Small Cell Carcinoma; test: Activity against heterotransplanted human small cell lung carcinoma; assay type: in vivo; settings: day 41
Description: as §6

Compound: O=C([O][Ti+2][O]C(=O)C(Cl)(Cl)Cl)C(Cl)(Cl)Cl.c1cc[cH-]c1.c1cc[cH-]c1 [Compound 4, Bis(trichloroacetato)bis(.eta.^5 -cyclopentadienyl)titanium(IV)]
- T/C (B16 Melanoma; 1 × 320 mg/kg i.p.): 85%
- T/C (B16 Melanoma; 3 × 300 mg/kg i.p.): 41%
- T/C (Colon 38 Carcinoma; 1 × 320 mg/kg i.p.): 48%
- ILS (increase in life span) (ascitic Sarcoma 180; 1 × 220 mg/kg): 4%
- MST (mean survival time) (ascitic Sarcoma 180; 1 × 220 mg/kg): 17,2 (15-20) d
- ILS (increase in life span) (ascitic Sarcoma 180; 1 × 320 mg/kg): 96%
- Survivors/Animals Treated (ascitic Sarcoma 180; 1 × 320 mg/kg): 1/5
- MST (mean survival time) (ascitic Sarcoma 180; 1 × 320 mg/kg): 32,4 (18-80) d
- T/C (solid Sarcoma 180; 1 × 220 mg/kg): 96%
- Tumor Weight (solid Sarcoma 180; 1 × 220 mg/kg): 1,14 ± 0,26 g
- T/C (solid Sarcoma 180; 1 × 320 mg/kg): 67%
- Tumor Weight (solid Sarcoma 180; 1 × 320 mg/kg): 0,79 ± 0,28 g
- T/C (solid Sarcoma 180; 3 × 200 mg/kg): 106%
- Tumor Weight (solid Sarcoma 180; 3 × 200 mg/kg): 1,26 ± 0,30 g
- Toxicity Deaths/Animals Treated (solid Sarcoma 180; 3 × 300 mg/kg): 1/5
- T/C (solid Sarcoma 180; 3 × 300 mg/kg): 37%
- Tumor Weight (solid Sarcoma 180; 3 × 300 mg/kg): 0,44 ± 0,14 g
- Optimal Treating Rate (Ehrlich ascites tumor): 100%
- Therapeutic Index (LD50/ED90) (Ehrlich ascites tumor): 5,5

Compound: Titanocene dibromide [reference compound]
- T/C (based on mean relative volume of tumor) (Mammary Carcinoma; 5 × 20 mg/kg): 44%
- T/C (B16 Melanoma; 1 × 60 mg/kg i.p.): 42%
- T/C (B16 Melanoma; 3 × 50 mg/kg i.p.): 48%
- T/C (B16 Melanoma; 3 × 60 mg/kg i.p.): 44%
- T/C (based on mean relative volume of tumor) (Lung Adenocarcinoma; 5 × 20 mg/kg): 53%
- T/C (Colon 38 Carcinoma; 1 × 60 mg/kg i.p.): 36%
- T/C (Colon 38 Carcinoma; 3 × 50 mg/kg i.p.): 51%
- T/C (based on mean relative volume of tumor) (Rectum Adenocarcinoma; 5 × 20 mg/kg): 48%
- ILS (increase in life span) (ascitic Sarcoma 180; 1 × 50 mg/kg, group of 5): 61%
- MST (mean survival time) (ascitic Sarcoma 180; 1 × 50 mg/kg, group of 5): 28,4 (22-34) d
- ILS (increase in life span) (ascitic Sarcoma 180; 1 × 60 mg/kg): 128%
- Survivors/Animals Treated (ascitic Sarcoma 180; 1 × 60 mg/kg): 1/5
- MST (mean survival time) (ascitic Sarcoma 180; 1 × 60 mg/kg): 40,2 (20-80) d
- T/C (solid Sarcoma 180; 1 × 50 mg/kg): 108%
- Tumor Weight (solid Sarcoma 180; 1 × 50 mg/kg): 1,27 ± 0,37 g
- T/C (solid Sarcoma 180; 1 × 60 mg/kg): 94%
- Tumor Weight (solid Sarcoma 180; 1 × 60 mg/kg): 1,21 ± 0,37 g
- T/C (solid Sarcoma 180; 3 × 50 mg/kg): 53%
- Tumor Weight (solid Sarcoma 180; 3 × 50 mg/kg): 0,69 ± 0,17 g
- Toxicity Deaths/Animals Treated (solid Sarcoma 180; 3 × 60 mg/kg): 1/5
- T/C (solid Sarcoma 180; 3 × 60 mg/kg): 37%
- Tumor Weight (solid Sarcoma 180; 3 × 60 mg/kg): 0,48 ± 0,10 g
- T/C (based on mean relative volume of tumor) ([1]; 5 × 20 mg/kg): 96%

Compound: titanocene dichloride [reference compound]
- T/C (based on mean relative volume of tumor) (Mammary Carcinoma; 5 × 15 mg/kg): 49%
- T/C (B16 Melanoma; 1 × 50 mg/kg i.p.): 61%
- T/C (B16 Melanoma; 3 × 40 mg/kg i.p.): 69%
- T/C (B16 Melanoma; 3 × 50 mg/kg i.p.): 37%
- T/C (based on mean relative volume of tumor) (Lung Adenocarcinoma; 5 × 15 mg/kg): 34%
- T/C (Colon 38 Carcinoma; 1 × 50 mg/kg i.p.): 41%
- T/C (Colon 38 Carcinoma; 3 × 40 mg/kg i.p.): 28%
- T/C (based on mean relative volume of tumor) (Rectum Adenocarcinoma; 5 × 15 mg/kg): 38%
- ILS (increase in life span) (ascitic Sarcoma 180; 1 × 40 mg/kg, group of 5): 81%
- Survivors/Animals Treated (ascitic Sarcoma 180; 1 × 40 mg/kg, group of 5): 1/5
- MST (mean survival time) (ascitic Sarcoma 180; 1 × 40 mg/kg, group of 5): 32,0 (18-80) d
- ILS (increase in life span) (ascitic Sarcoma 180; 1 × 40 mg/kg, group of 6): 32%
- MST (mean survival time) (ascitic Sarcoma 180; 1 × 40 mg/kg, group of 6): 27,3 (20-49) d
- ILS (increase in life span) (ascitic Sarcoma 180; 1 × 50 mg/kg, group of 5): 184%
- Survivors/Animals Treated (ascitic Sarcoma 180; 1 × 50 mg/kg, group of 5): 2/5
- MST (mean survival time) (ascitic Sarcoma 180; 1 × 50 mg/kg, group of 5): 50,0 (25-80) d
- ILS (increase in life span) (ascitic Sarcoma 180; 1 × 50 mg/kg, group of 6): 161%
- Survivors/Animals Treated (ascitic Sarcoma 180; 1 × 50 mg/kg, group of 6): 3/6
- MST (mean survival time) (ascitic Sarcoma 180; 1 × 50 mg/kg, group of 6): 54,0 (25-80) d
- T/C (solid Sarcoma 180; 1 × 40 mg/kg): 111%
- Tumor Weight (solid Sarcoma 180; 1 × 40 mg/kg): 1,31 ± 0,24 g
- T/C (solid Sarcoma 180; 1 × 50 mg/kg): 66%
- Tumor Weight (solid Sarcoma 180; 1 × 50 mg/kg): 0,78 ± 0,34 g
- T/C (solid Sarcoma 180; 3 × 40 mg/kg): 58%
- Tumor Weight (solid Sarcoma 180; 3 × 40 mg/kg): 0,75 ± 0,32 g
- T/C (solid Sarcoma 180; 3 × 50 mg/kg): 23%
- Tumor Weight (solid Sarcoma 180; 3 × 50 mg/kg): 0,29 ± 0,14 g
- Optimal Treating Rate (Ehrlich ascites tumor): 90-100%
- Therapeutic Index (LD50/ED90) (Ehrlich ascites tumor): 3,3
- T/C (based on mean relative volume of tumor) ([1]; 5 × 15 mg/kg): 110%
